In PMC3729217 (Chembiochem : a European journal of chemical biology, 2010):

Key:
[1] = target: PKCα-EGFP (Rattus norvegicus, UniProt P05696); assay: Plasma membrane translocation of PKCα-EGFP in transfected MCF-7 cells; format: cell-based; details: MCF-7 cells expressing PKCα-EGFP, stimulated with 40 μM, 37°C
[2] = target: PKCδ-ECFP (Homo sapiens, UniProt Q05655); assay: Plasma membrane translocation of PKCδ-ECFP in transfected MCF-7 cells; format: cell-based, rat; details: MCF-7 cells expressing PKCδ-ECFP, stimulated with 40 μM, 37°C
[3] = target: T1, PKCε-EGFP (Rattus norvegicus, UniProt P09216); assay: Plasma membrane translocation of PKCε-EGFP in transfected MCF-7 cells; format: cell-based; details: MCF-7 cells expressing PKCε-EGFP, stimulated with 40 μM, 37°C
T1 sequence (P09216 1-737): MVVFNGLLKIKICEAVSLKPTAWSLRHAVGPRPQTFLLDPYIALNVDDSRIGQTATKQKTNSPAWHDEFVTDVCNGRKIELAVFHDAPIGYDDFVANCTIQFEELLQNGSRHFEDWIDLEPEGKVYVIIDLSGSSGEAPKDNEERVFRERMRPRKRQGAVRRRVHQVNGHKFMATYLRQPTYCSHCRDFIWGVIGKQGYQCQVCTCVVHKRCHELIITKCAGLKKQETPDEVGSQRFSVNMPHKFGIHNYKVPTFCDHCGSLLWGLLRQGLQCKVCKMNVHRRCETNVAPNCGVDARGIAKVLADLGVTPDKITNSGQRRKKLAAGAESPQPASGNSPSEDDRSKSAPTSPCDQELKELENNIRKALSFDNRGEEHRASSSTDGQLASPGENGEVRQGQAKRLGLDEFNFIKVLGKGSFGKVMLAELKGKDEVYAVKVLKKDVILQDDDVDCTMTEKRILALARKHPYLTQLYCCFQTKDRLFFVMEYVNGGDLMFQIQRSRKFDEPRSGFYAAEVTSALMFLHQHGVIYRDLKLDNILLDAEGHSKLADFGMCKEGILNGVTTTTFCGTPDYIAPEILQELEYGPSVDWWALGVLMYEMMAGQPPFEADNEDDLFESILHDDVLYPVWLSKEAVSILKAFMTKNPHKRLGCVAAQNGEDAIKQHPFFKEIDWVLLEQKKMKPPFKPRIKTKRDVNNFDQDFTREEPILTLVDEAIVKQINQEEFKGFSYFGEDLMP

PKCδ-ECFP, sequence (Q05655 whole entry): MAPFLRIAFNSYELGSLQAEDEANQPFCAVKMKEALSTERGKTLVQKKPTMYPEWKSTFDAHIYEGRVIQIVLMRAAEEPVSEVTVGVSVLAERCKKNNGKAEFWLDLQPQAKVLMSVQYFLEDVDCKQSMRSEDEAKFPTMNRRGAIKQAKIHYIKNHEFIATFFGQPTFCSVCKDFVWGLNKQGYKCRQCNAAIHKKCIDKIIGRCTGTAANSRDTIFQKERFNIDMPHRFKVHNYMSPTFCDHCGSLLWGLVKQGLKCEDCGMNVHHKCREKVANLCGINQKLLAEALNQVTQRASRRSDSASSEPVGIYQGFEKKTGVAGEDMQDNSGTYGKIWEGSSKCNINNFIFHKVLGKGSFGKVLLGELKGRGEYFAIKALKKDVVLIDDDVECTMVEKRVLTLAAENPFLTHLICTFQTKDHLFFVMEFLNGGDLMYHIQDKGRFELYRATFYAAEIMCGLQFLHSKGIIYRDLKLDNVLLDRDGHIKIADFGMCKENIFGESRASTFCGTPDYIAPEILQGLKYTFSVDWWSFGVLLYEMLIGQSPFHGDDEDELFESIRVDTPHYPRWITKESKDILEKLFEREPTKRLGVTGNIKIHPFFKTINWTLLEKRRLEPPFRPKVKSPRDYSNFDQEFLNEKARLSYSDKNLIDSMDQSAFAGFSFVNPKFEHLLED

CCCCCCCCCCCCCC(=O)O[C@@H]1[C@@H](C)[C@@]2(O)[C@@H](C=C(CO)C[C@]3(O)C(=O)C(C)=C[C@@H]23)[C@@H]2C(C)(C)[C@]12OC(C)=O [PMA, phorbol 12-myristate 13-acetate]
t1/2, half-time of plasma membrane localization [1]: 547 ± 192 s
t1/2, half-time of plasma membrane localization [2]: 47 ± 22 s
t1/2, half-time of plasma membrane localization [3]: 31 ± 18 s
